Residues, ends and D or L forms follow the SMILES beside them.
Legend:
[1] = tested on: LPS; assay: Mouse survival, preventive treatment before lethal LPS challenge; assay type: in vivo; design: key to survival of mice, single-animal event: 1 represents a mouse death; 0 represents no death; details: for survival of mice, single-animal event: Fig. 7a source data, LPS challenge
Procedure: A sepsis mouse model established in our laboratory was used to evaluate the prevention effect of peptides. […] The survival rate of mice was recorded for 7 days. The mice injected with saline were used as negative control.

[2] = tested on: E. coli 0111: B4 LPS; assay: BC (BODIPY-TR-cadaverine) displacement assay, binding to LPS; design: species or system Escherichia coli; unit not given here; details: Fig. 4a source data, mean
Procedure: The binding of peptides to LPS was determined according to the method described previously[34],[59]. In brief, E. coli 0111: B4 LPS (40 μg/mL) and BODIPY-TR-cadaverine (BC) (10 μM) were mixed in 50 mM Tris buffer (pH = 7.4) in equal proportions and added to a 96-well black plate (180 μL/well) in the dark. Different concentrations of chimeric peptide R7 and its parental (20 μL) were added into each well and detected by a fluorescence spectrophotometry at room temperature (excitation wavelength 580 nm, emission wavelength 620 nm). The change in relative fluorescence was recorded and the BC displacement rate was calculated. Polymycin B (PMB) was used as the positive control.

[3] = tested on: MDR E. coli; assay: Antibacterial activity after incubation in human serum (inhibition assay); assay type: cell-based, Escherichia coli; details: Supplementary Fig. 2c source data, mean
Procedure: Serum stability of R7 and its parent-L7 was tested as previously described with minor modifications[46],[53]. […] The samples were incubated at 4 °C for 15 min and centrifuged for 10 min at 12,000 rpm. The supernatants were analyzed by RP-HPLC or inhibition zone method. Moreover, after incubation in serum for 2 h, R7 was analyzed by matrix assisted laser desorption/ionization-time of flight mass spectrometry (MALDI-TOF MS) and high-performance liquid chromatography-mass spectrometry (HPLC-MS), respectively.
Supplementary Figure 2. Serum stability and release of peptides in human serum. a Detection of the peak area change of peptides in serum by RP-HPLC. b The remaining rate of peptides in bovine serum. c The antibacterial activity of peptides against MDR E. coli in serum detected by an inhibition assay. d The MALDI-TOF mass spectrometry of R7 after incubation in bovine serum for 2 h. The experiments were repeated three times. Data in a and d is representative of three biological replicates.
The results are given as the mean ± SD of three independent experiments in b and c. Different lower-case letters indicate a significant difference between the two groups (p<0.05).
(1 picture or pasted object on this page, not shown here)

[4] = tested on: MDR E. coli CVCC195; assay: Serum cytokines (TNF-α, IL-6, IL-1β, IL-10; ELISA) in E. coli-challenged mice; assay type: in vivo, mouse; design: unit not given beside the values; details: Fig. 5c-f source data, peptide + E. coli challenged mice, mean
Procedure: After E. coli or LPS challenge, the mice were sacrificed at 12 h and 24 h, respectively, and the sera were collected to detect inflammatory cytokines (such as tumor necrosis factor-α (TNF-α), interleukin-6 (IL-6), interleukin-1β (IL-1β), and interleukin-10 (IL-10)) using the enzyme linked immunosorbent assay (ELISA) kits. To evaluate the specific activity of intestinal alkaline phosphatase (IAP), a 2 cm segment of duodenum was rapidly intercepted from the mice and homogenized; the IAP levels in the supernatant were detected by ELISA. In addition, the lungs were collected from the mice infected by E. coli after 12 and 24 h, respectively and were homogenized in sterile PBS for the bacterial counts assay.

[5] = in vitro; assay type: in vitro ADME
[6] = Serum stability in mouse serum (RP-HPLC); assay type: in vitro ADME; details: 25% mouse serum
Procedure: Serum stability of R7 and its parent-L7 was tested as previously described with minor modifications[46],[53]. Briefly, each peptide was added to the 25% mouse serum to a final concentration of 0.5 mM; 250 µL aliquots of samples were taken at 0, 0.5, 1, 2, 4 and 8 h, and mixed with 20 µL 15% trichloroacetic acid (TCA). The samples were incubated at 4 °C for 15 min and centrifuged for 10 min at 12,000 rpm. The supernatants were analyzed by RP-HPLC or inhibition zone method. Moreover, after incubation in serum for 2 h, R7 was analyzed by matrix assisted laser desorption/ionization-time of flight mass spectrometry (MALDI-TOF MS) and high-performance liquid chromatography-mass spectrometry (HPLC-MS), respectively.

[7] = tested on: MDR E. coli CVCC195; assay: Infiltrated inflammatory cells in lung sections, E. coli-challenged mice; assay type: in vivo, mouse; details: Fig. 6c source data, peptide + E. coli, mean
Procedure: Fig. 6 Effects of cleavable chimeric peptide R7 on lung injury in mice. […] Lung injury was analyzed histologically at 12 h or 24 h. a Histopathological images of lung sections after staining with hematoxylin and eosin (H&E). Images are presented at a magnification of 100×. b Pathological analysis of lung. Lung injury involves in inflammation (such as peribronchial, perivascular, intrabronchial, and pulmonary interstitial one), bronchial exudate, and alveolar septal thickening, respectively. The specific degree of lung injury of each mouse is assessed by Score 0 (asymptomatic), Score 1 (mild), Score 2 (moderate), and Score 3 (severe), respectively. c The number of counted infiltrated inflammatory cells within processed lung sections from a. Data represent the mean ± SD of three independent experiments. Different lower-case letters indicate a significant difference between the two groups (p < 0.05).
Lung tissues were taken at 12 h and 24 h, respectively, washed with PBS, and fixed in 4% paraformaldehyde overnight. After dehydration in different concentrations of ethanol (including 75%, 85%, 90%, and 95%, respectively), the tissues were embedded in paraffin, sliced, and stained with hematoxylin. Observation was performed under a light microscope. The mice only injected with E. coli, LPS or PBS was regard as the negative or blank control.

In the case of `CSCC[C@H](NC(=O)[C@H](CCCNC(=N)N)NC(=O)[C@H](Cc1c[nH]c2ccccc12)NC(=O)[C@H](C)NC(=O)[C@H](Cc1c[nH]c2ccccc12)NC(=O)[C@H](CCCNC(=N)N)NC(=O)[C@H](Cc1c[nH]c2ccccc12)NC(=O)[C@H](C)NC(=O)[C@H](CCCCN)NC(=O)[C@@H](N)Cc1ccccc1)C(=O)N[C@@H](CCCCN)C(=O)N[C@@H](CCCCN)C(=O)N[C@@H](CC(C)C)C(=O)N[C@@H](C)C(=O)N[C@@H](C)C(=O)N1CCC[C@H]1C(=O)N[C@@H](CO)C(=O)O` [L7] (H-FKAWRWAWRMKKLAAPS-OH), the “mouse survival at 7 days” value ([1]; 7 μmol/kg i.p. at 0 h, LPS 13.5 mg/kg i.p. at 6 h, five mice/group) is reported as 40%, the “survival of mice, single-animal event” value ([1]; event at day 2, one cell per mouse) is reported as 1 and the “survival of mice, single-animal event” value ([1]; event at day 7, one cell per entry) is reported as 0. For the same compound, the “binding affinity to LPS” value ([2]; peptide concentration 0.05 μM) was 17.2577, the “binding affinity to LPS” value ([2]; peptide concentration 0.1 μM) was 18.4019 and the “binding affinity to LPS” value ([2]; peptide concentration 0.5 μM) was 19.7825. For the same compound, the “binding affinity to LPS” value ([2]; peptide concentration 1 μM) was 22.1031, the “binding affinity to LPS” value ([2]; peptide concentration 5 μM) was 24.1888 and the “binding affinity to LPS” value ([2]; peptide concentration 10 μM) was 28.4883. For the same compound, the “binding affinity to LPS” value ([2]; peptide concentration 50 μM) was 44.9086, the “binding affinity to LPS” value ([2]; peptide concentration 100 μM) was 71.3338 and the “antibacterial activity against MDR E. coli in human serum detected by an inhibition assay” value (“antibacterial activity … by an inhibition assay” for short) ([3]; incubation in human serum 0 h) was 0.99. The “antibacterial activity … by an inhibition assay” value ([3]; incubation in human serum 0.5 h) was 0.9833, the “antibacterial activity … by an inhibition assay” value ([3]; incubation in human serum 1 h) was 0.9833 and the “antibacterial activity … by an inhibition assay” value ([3]; incubation in human serum 2 h) was 0.8667. For the same compound, the “antibacterial activity … by an inhibition assay” value ([3]; incubation in human serum 4 h) was 0.78, the “antibacterial activity … by an inhibition assay” value ([3]; incubation in human serum 8 h) was 0 and the TNFα ([4]; 12 h) was 75.496. The TNFα ([4]; 24 h) was 66.872, the “degradation in human serum” value ([5]; RP-HPLC (Supplementary Fig. 2)) was “almost identical to those in mouse serum” and the remaining at 0.5 h, 0.5 mM ([5]; Supplementary Fig. 2b source data, human serum, 0.5 h, RP-HPLC, mean, read-out: remaining rate in human serum) was 86.9%. It also gave a remaining at 1 h, 0.5 mM ([5]; Supplementary Fig. 2b source data, human serum, 1 h, RP-HPLC, mean, read-out: remaining rate in human serum) of 51.4%, a remaining at 2 h, 0.5 mM ([5]; Supplementary Fig. 2b source data, human serum, 2 h, RP-HPLC, mean, read-out: remaining rate in human serum) of 32% and a remaining at 4 h, 0.5 mM ([5]; Supplementary Fig. 2b source data, human serum, 4 h, RP-HPLC, mean, read-out: remaining rate in human serum) of 4.71%. It also gave a remaining at 8 h, 0.5 mM ([5]; Supplementary Fig. 2b source data, human serum, 8 h, RP-HPLC, mean, read-out: remaining rate in human serum) of 0.839%, a remaining at 0.5 h, 0.5 mM ([6]; peptide 0.5 mM, 0.5 h, mean of three, read-out: remaining rate in mouse serum) of 74.5% and a remaining at 1 h, 0.5 mM ([6]; peptide 0.5 mM, 1 h, mean of three, read-out: remaining rate in mouse serum) of 62.7%. For the same compound, the remaining at 2 h, 0.5 mM ([6]; peptide 0.5 mM, 2 h, mean of three, read-out: remaining rate in mouse serum) was 25.3%, the remaining at 4 h, 0.5 mM ([6]; peptide 0.5 mM, 4 h, mean of three, read-out: remaining rate in mouse serum) was 6.01% and the “remaining rate in mouse serum” value ([6]; peptide 0.5 mM, 8 h, mean of three) was “completely undetectable”. For the same compound, the remaining at 8 h, 0.5 mM ([6]; peptide 0.5 mM, 8 h, mean of three, read-out: remaining rate in mouse serum) was 0.829%, the “peptide remained intact in mouse serum” value ([6]; range from 2 h to 8 h of incubation) was 25.3 ~ 0.8% and the “number of counted infiltrated inflammatory cells” value ([7]; 12 h) was 32.847. For the same compound, the “number of counted infiltrated inflammatory cells” value ([7]; 24 h) was 26.4133.

From article PMC10654507, “A cleavable chimeric peptide with targeting and killing domains enhances LPS neutralization and antibacterial properties against multi-drug resistant E. coli” (Communications Biology, 2023)
